Results published in ChEMBL document CHEMBL4419163, “Assays for identifying compounds that modulate bitter taste” (2014).

Columns and labels:
Assay type in all cases: functional, cell-based
[1] = target: T1, Taste receptor type 2 member 46 (Homo sapiens) (UniProt P59540); experiment: Agonist activity at human TAS2R46 expressed in HEK293T cells co-expressing Galpha15 assessed as increase in intracellular calcium level at 20 mM by Calcium-3 dye based fluorescence assay relative to control
T1 sequence (whole entry): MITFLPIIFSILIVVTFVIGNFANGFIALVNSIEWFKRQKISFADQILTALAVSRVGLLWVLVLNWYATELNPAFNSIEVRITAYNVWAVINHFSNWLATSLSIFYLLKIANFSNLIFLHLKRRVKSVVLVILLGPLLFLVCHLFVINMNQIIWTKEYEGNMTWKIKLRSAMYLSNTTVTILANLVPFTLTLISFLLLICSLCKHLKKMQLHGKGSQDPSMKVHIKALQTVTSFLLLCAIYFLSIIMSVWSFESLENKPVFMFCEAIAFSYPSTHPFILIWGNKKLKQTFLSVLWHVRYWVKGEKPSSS

[2] = target: T2, Taste receptor type 2 member 60 (Homo sapiens) (UniProt P59551); experiment: Agonist activity at human TAS2R60 expressed in HEK293T cells co-expressing Galpha15 assessed as increase in intracellular calcium level at 20 mM by Calcium-3 dye based fluorescence assay relative to control
T2 sequence (whole entry): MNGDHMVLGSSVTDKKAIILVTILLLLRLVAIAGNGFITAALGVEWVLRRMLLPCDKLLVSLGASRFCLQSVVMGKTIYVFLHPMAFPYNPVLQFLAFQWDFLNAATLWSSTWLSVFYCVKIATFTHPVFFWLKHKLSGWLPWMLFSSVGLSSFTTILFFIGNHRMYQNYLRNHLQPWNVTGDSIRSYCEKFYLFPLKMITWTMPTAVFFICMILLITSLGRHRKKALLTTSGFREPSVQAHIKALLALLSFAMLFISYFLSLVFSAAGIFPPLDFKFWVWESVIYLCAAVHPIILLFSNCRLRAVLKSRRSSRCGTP

[3] = target: Taste receptor type 2 member 60 (Homo sapiens, UniProt P59551); experiment: Agonist activity at human TAS2R60 expressed in HEK293T cells co-expressing Galpha15 assessed as increase in intracellular calcium level by Calcium-3 dye based fluorescence assay
[4] = target: Taste receptor type 2 member 13 (Homo sapiens, UniProt Q9NYV9); experiment: Agonist activity at human TAS2R13 expressed in HEK293T cells co-expressing Galpha15 assessed as increase in intracellular calcium level by Calcium-3 dye based fluorescence assay
Taste receptor type 2 member 13, sequence (Q9NYV9 whole entry): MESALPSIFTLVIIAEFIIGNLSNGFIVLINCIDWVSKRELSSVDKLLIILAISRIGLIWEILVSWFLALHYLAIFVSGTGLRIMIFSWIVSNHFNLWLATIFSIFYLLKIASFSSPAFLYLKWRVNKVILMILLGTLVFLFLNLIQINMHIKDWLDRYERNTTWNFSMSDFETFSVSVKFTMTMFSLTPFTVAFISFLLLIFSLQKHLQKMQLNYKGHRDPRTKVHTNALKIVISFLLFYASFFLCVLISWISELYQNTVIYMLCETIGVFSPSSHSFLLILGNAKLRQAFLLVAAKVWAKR

[5] = target: Taste receptor type 2 member 4 (Homo sapiens, UniProt Q9NYW5); experiment: Agonist activity at human TAS2R4 expressed in HEK293T cells co-expressing Galpha15 assessed as increase in intracellular calcium level by Calcium-3 dye based fluorescence assay
[6] = target: Taste receptor type 2 member 31 (Homo sapiens, UniProt P59538); experiment: Agonist activity at human TAS2R44 expressed in HEK293T cells co-expressing Galpha15 assessed as increase in intracellular calcium level by Calcium-3 dye based fluorescence assay
Taste receptor type 2 member 31, sequence (P59538 whole entry): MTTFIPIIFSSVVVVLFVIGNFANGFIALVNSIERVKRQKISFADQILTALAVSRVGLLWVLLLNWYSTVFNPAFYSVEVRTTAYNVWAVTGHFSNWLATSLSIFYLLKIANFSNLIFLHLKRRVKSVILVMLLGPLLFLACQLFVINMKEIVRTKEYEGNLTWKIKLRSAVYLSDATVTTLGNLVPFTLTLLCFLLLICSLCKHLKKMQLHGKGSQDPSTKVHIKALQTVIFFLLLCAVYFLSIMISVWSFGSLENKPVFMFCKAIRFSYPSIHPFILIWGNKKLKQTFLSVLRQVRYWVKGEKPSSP

[7] = target: T3, Taste receptor type 2 member 4 (Homo sapiens) (UniProt Q9NYW5); experiment: Agonist activity at human TAS2R4 expressed in HEK293T cells co-expressing Galpha15 assessed as increase in intracellular calcium level at 20 mM by Calcium-3 dye based fluorescence assay relative to control
T3 sequence (whole entry): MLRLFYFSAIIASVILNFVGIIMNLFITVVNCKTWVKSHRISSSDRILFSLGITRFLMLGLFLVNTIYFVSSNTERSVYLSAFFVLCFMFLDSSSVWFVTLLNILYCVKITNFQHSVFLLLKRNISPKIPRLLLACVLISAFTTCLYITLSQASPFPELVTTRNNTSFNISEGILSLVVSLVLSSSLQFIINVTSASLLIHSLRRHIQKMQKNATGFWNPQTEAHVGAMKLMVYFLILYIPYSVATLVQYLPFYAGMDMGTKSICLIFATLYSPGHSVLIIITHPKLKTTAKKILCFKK

[8] = target: Taste receptor type 2 member 14 (Homo sapiens, UniProt Q9NYV8); experiment: Agonist activity at human TAS2R14 expressed in HEK293T cells co-expressing Galpha15 assessed as increase in intracellular calcium level by Calcium-3 dye based fluorescence assay
Taste receptor type 2 member 14, sequence (Q9NYV8 whole entry): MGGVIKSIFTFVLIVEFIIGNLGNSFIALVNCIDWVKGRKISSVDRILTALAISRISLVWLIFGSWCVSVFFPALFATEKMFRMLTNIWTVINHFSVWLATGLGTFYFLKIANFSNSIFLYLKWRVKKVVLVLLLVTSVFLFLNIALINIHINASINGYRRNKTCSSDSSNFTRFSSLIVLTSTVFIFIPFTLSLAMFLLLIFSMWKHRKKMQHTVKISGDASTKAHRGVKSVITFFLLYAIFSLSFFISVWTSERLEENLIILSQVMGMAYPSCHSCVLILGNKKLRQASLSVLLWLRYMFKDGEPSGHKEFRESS

[9] = target: Taste receptor type 2 member 9 (Homo sapiens, UniProt Q9NYW1); experiment: Agonist activity at human TAS2R9 expressed in HEK293T cells co-expressing Galpha15 assessed as increase in intracellular calcium level by Calcium-3 dye based fluorescence assay
Taste receptor type 2 member 9, sequence (Q9NYW1 whole entry): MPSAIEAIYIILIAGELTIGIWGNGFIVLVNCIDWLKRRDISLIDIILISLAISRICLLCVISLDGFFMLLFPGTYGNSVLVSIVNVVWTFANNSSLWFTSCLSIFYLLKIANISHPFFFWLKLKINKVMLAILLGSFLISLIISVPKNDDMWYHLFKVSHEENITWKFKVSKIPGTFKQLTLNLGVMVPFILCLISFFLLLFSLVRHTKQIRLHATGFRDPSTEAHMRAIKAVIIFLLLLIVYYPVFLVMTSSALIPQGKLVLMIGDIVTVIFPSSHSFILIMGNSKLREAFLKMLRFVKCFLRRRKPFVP

**Q.** Which Activity [1] does the source give for [Cl-].[K+] [POTASSIUM CHLORIDE] here?
**A.** < 40%

**Q.** And the Activity [2]?
**A.** > 40%

**Q.** And the EC50 [3]?
**A.** 5 to 15 mM

**Q.** And the EC50 [4]?
**A.** 5 to 15 mM

**Q.** What about the EC50 [5] of the same molecule?
**A.** 5 to 15 mM

**Q.** And the EC50 [6]?
**A.** 5 to 15 mM

**Q.** What about the Activity [7] of the same molecule?
**A.** > 40%

**Q.** And the EC50 [8]?
**A.** 5 to 15 mM

**Q.** What about the EC50 [9] of the same molecule?
**A.** 5 to 15 mM

**Q.** What does the source list for CC1=CC(=O)NS(=O)(=O)O1?
**A.** Activity [1]: < 40%; Activity [2]: < 40%; Activity [7]: > 40%

**Q.** What does the source list for CC(O)C(=O)[O-].[K+] (stereo not given)?
**A.** Activity [1]: > 40%; Activity [2]: > 40%; Activity [7]: > 40%
